# Experimental data: ChEMBL document CHEMBL3045777, “Response of selected horseweed (Conyza canadensis (L.) Cronq.) populations to glyphosate” (2004)
# How the values were obtained:
# Erigeron canadensis [1] = assay: Herbicidal activity against compound-resistant Conyza canadensis (horseweed) isolate 2 under greenhouse condition at 3.36 kg ae/ha measured 14 days post treatment relative to control; format: functional
# Erigeron canadensis [2] = assay: Herbicidal activity against compound-resistant Conyza canadensis (horseweed) isolate 1 under greenhouse condition at 3.36 kg ae/ha measured 7 days post treatment relative to control; format: functional
# Erigeron canadensis [3] = assay: Herbicidal activity against compound-sensitive Conyza canadensis (horseweed) under greenhouse condition at 2.52 kg ae/ha measured 14 days post treatment relative to control; format: functional
# Erigeron canadensis [4] = assay: Herbicidal activity against compound-resistant Conyza canadensis (horseweed) isolate 2 under greenhouse condition at 0.84 kg ae/ha measured 7 days post treatment relative to control; format: functional
# Erigeron canadensis [5] = assay: Herbicidal activity against compound-resistant Conyza canadensis (horseweed) isolate 2 under greenhouse condition at 2.52 kg ae/ha measured 7 days post treatment relative to control; format: functional
# Erigeron canadensis [6] = assay: Herbicidal activity against compound-resistant Conyza canadensis (horseweed) isolate 1 under greenhouse condition at 3.36 kg ae/ha measured 21 days post treatment relative to control; format: functional
# Erigeron canadensis [7] = assay: Herbicidal activity against compound-resistant Conyza canadensis (horseweed) isolate 1 under greenhouse condition at 0.84 kg ae/ha measured 21 days post treatment relative to control; format: functional
# Erigeron canadensis [8] = assay: Herbicidal activity against compound-resistant Conyza canadensis (horseweed) isolate 2 under greenhouse condition at 2.52 kg ae/ha measured 21 days post treatment relative to control; format: functional
# Erigeron canadensis [9] = assay: Herbicidal activity against compound-sensitive Conyza canadensis (horseweed) under greenhouse condition at 0.45 kg ae/ha measured 7 days post treatment relative to control; format: functional
# Erigeron canadensis [10] = assay: Herbicidal activity against compound-resistant Conyza canadensis (horseweed) isolate 2 under greenhouse condition at 9 kg ae/ha measured 21 days post treatment relative to control; format: functional
# Erigeron canadensis [11] = assay: Herbicidal activity against compound-resistant Conyza canadensis (horseweed) isolate 2 under greenhouse condition at 1.68 kg ae/ha measured 7 days post treatment relative to control; format: functional
# Erigeron canadensis [12] = assay: Herbicidal activity against compound-resistant Conyza canadensis (horseweed) isolate 2 under greenhouse condition assessed as fresh weight at 0.84 kg ae/ha measured 21 days post treatment relative to untreated control
# Erigeron canadensis [13] = assay: Herbicidal activity against compound-sensitive Conyza canadensis (horseweed) under greenhouse condition at 1.68 kg ae/ha measured 14 days post treatment relative to control; format: functional
# Erigeron canadensis [14] = assay: Herbicidal activity against compound-resistant Conyza canadensis (horseweed) isolate 1 under greenhouse condition at 9 kg ae/ha measured 21 days post treatment relative to control; format: functional
# Erigeron canadensis [15] = assay: Herbicidal activity against compound-sensitive Conyza canadensis (horseweed) under greenhouse condition at 0.45 kg ae/ha measured 14 days post treatment relative to control; format: functional
# Erigeron canadensis [16] = assay: Herbicidal activity against compound-sensitive Conyza canadensis (horseweed) under greenhouse condition at 3.36 kg ae/ha measured 14 days post treatment relative to control; format: functional
# Erigeron canadensis [17] = assay: Herbicidal activity against compound-sensitive Conyza canadensis (horseweed) under greenhouse condition at 2.52 kg ae/ha measured 21 days post treatment relative to control; format: functional
# Erigeron canadensis [18] = assay: Herbicidal activity against compound-resistant Conyza canadensis (horseweed) isolate 1 under greenhouse condition at 1.68 kg ae/ha measured 14 days post treatment relative to control; format: functional
# Erigeron canadensis [19] = assay: Herbicidal activity against compound-resistant Conyza canadensis (horseweed) isolate 1 under greenhouse condition assessed as fresh weight at 1.25 kg ae/ha measured 21 days post treatment relative to untreated control
# Erigeron canadensis [20] = assay: Herbicidal activity against compound-resistant Conyza canadensis (horseweed) isolate 2 under greenhouse condition at 1.25 kg ae/ha measured 14 days post treatment relative to control; format: functional
# Erigeron canadensis [21] = assay: Herbicidal activity against compound-sensitive Conyza canadensis (horseweed) under greenhouse condition at 9 kg ae/ha measured 21 days post treatment relative to control; format: functional
# Erigeron canadensis [22] = assay: Herbicidal activity against compound-resistant Conyza canadensis (horseweed) isolate 1 under greenhouse condition assessed as fresh weight at 1.68 kg ae/ha measured 21 days post treatment relative to untreated control
# Erigeron canadensis [23] = assay: Herbicidal activity against compound-resistant Conyza canadensis (horseweed) isolate 1 under greenhouse condition at 1.68 kg ae/ha measured 7 days post treatment relative to control; format: functional
# Erigeron canadensis [24] = assay: Herbicidal activity against compound-resistant Conyza canadensis (horseweed) isolate 2 under greenhouse condition assessed as fresh weight at 9 kg ae/ha measured 21 days post treatment relative to untreated control
# Erigeron canadensis [25] = assay: Herbicidal activity against compound-resistant Conyza canadensis (horseweed) isolate 1 under greenhouse condition assessed as fresh weight at 0.84 kg ae/ha measured 21 days post treatment relative to untreated control
# Erigeron canadensis [26] = assay: Herbicidal activity against compound-resistant Conyza canadensis (horseweed) isolate 2 under greenhouse condition at 9 kg ae/ha measured 7 days post treatment relative to control; format: functional
# Erigeron canadensis [27] = assay: Herbicidal activity against Conyza canadensis (horseweed) under greenhouse condition at 0.05 kg ae/ha measured 7 days post treatment relative to control; format: functional
# Erigeron canadensis [28] = assay: Herbicidal activity against compound-resistant Conyza canadensis (horseweed) isolate 2 under greenhouse condition assessed as fresh weight at 0.45 kg ae/ha measured 21 days post treatment relative to untreated control
# Erigeron canadensis [29] = assay: Herbicidal activity against compound-resistant Conyza canadensis (horseweed) isolate 2 under greenhouse condition at 1.25 kg ae/ha measured 7 days post treatment relative to control; format: functional
# Erigeron canadensis [30] = assay: Herbicidal activity against compound-resistant Conyza canadensis (horseweed) isolate 2 under greenhouse condition at 2.52 kg ae/ha measured 14 days post treatment relative to control; format: functional
# Erigeron canadensis [31] = assay: Herbicidal activity against compound-sensitive Conyza canadensis (horseweed) under greenhouse condition at 2.52 kg ae/ha measured 7 days post treatment relative to control; format: functional
# Erigeron canadensis [32] = assay: Herbicidal activity against compound-resistant Conyza canadensis (horseweed) isolate 2 under greenhouse condition at 0.84 kg ae/ha measured 21 days post treatment relative to control; format: functional
# Erigeron canadensis [33] = assay: Herbicidal activity against compound-resistant Conyza canadensis (horseweed) isolate 2 under greenhouse condition at 0.84 kg ae/ha measured 14 days post treatment relative to control; format: functional
# Erigeron canadensis [34] = assay: Herbicidal activity against compound-resistant Conyza canadensis (horseweed) isolate 1 under greenhouse condition at 3.36 kg ae/ha measured 14 days post treatment relative to control; format: functional
# Erigeron canadensis [35] = assay: Herbicidal activity against compound-resistant Conyza canadensis (horseweed) isolate 1 under greenhouse condition assessed as fresh weight at 0.45 kg ae/ha measured 21 days post treatment relative to untreated control
# Erigeron canadensis [36] = assay: Herbicidal activity against compound-resistant Conyza canadensis (horseweed) isolate 2 under greenhouse condition at 3.36 kg ae/ha measured 7 days post treatment relative to control; format: functional
# Erigeron canadensis [37] = assay: Herbicidal activity against compound-sensitive Conyza canadensis (horseweed) under greenhouse condition at 9 kg ae/ha measured 14 days post treatment relative to control; format: functional
structure (smiles),measurement,setting,value
O=C(O)CNCP(=O)(O)O [GLYPHOSATE],Activity,Erigeron canadensis [1],69%
same,Activity,Erigeron canadensis [2],73%
same,Activity,Erigeron canadensis [3],99%
same,Activity,Erigeron canadensis [4],23%
same,Activity,Erigeron canadensis [5],53%
same,Activity,Erigeron canadensis [6],75%
same,Activity,Erigeron canadensis [7],11%
same,Activity,Erigeron canadensis [8],63%
same,Activity,Erigeron canadensis [9],40%
same,Activity,Erigeron canadensis [10],89%
same,Activity,Erigeron canadensis [11],50%
same,"level, % of control",Erigeron canadensis [12],86%
same,Activity,Erigeron canadensis [13],98%
same,Activity,Erigeron canadensis [14],80%
same,Activity,Erigeron canadensis [15],40%
same,Activity,Erigeron canadensis [16],95%
same,Activity,Erigeron canadensis [17],99%
same,Activity,Erigeron canadensis [18],40%
same,"level, % of control",Erigeron canadensis [19],88%
same,Activity,Erigeron canadensis [20],15%
same,Activity,Erigeron canadensis [21],99%
same,"level, % of control",Erigeron canadensis [22],36%
same,Activity,Erigeron canadensis [23],40%
same,"level, % of control",Erigeron canadensis [24],12%
same,"level, % of control",Erigeron canadensis [25],94%
same,Activity,Erigeron canadensis [26],73%
same,Activity,Erigeron canadensis [27],14%
same,"level, % of control",Erigeron canadensis [28],94%
same,Activity,Erigeron canadensis [29],33%
same,Activity,Erigeron canadensis [30],50%
same,Activity,Erigeron canadensis [31],83%
same,Activity,Erigeron canadensis [32],24%
same,Activity,Erigeron canadensis [33],14%
same,Activity,Erigeron canadensis [34],58%
same,"level, % of control",Erigeron canadensis [35],99%
same,Activity,Erigeron canadensis [36],60%
same,Activity,Erigeron canadensis [37],98%
